For assay [1], the system named is MO/Mphi. The assay can be described thus: Concentration that provides 50% protection in the MO/Mphi cells infected with HIV-1 Ba-L strain. It counts as functional, cell-based. To be noted: Homo sapiens.
For assay [2], the target named is Human immunodeficiency virus type 1 reverse transcriptase (Human immunodeficiency virus 1, UniProt Q72547). Kind of assay: Inhibitory activity against HIV-1 reverse transcriptase.
The test system of assay [3] is MT4. The assay can be described thus: Concentration that provides 50% protection in the MT-4 cells infected with nevirapine-resistant HIV-1 N119 strain. It counts as functional, cell-based. As to conditions: Homo sapiens.
Assay [4] concerns PBL. Kind of assay: Concentration that provides 50% protection in the PBL cells infected with HIV-1 VIHU strain. As to conditions: Homo sapiens. It counts as functional, cell-based.
For assay [5], the system named is MT4. The assay can be described thus: Concentration that results in 50% death of MT-4 cells infected with Nevirapine resistant HIV-1 N119 strain; no toxicity was observed. It counts as functional, cell-based. To be noted: Homo sapiens.
Assay [6] deals with MT4. Kind of assay: Concentration that provides 50% protection in the MT-4 cells infected with AZT-resistant HIV-1 6S strain. The class given is functional, cell-based. As to conditions: Homo sapiens.
In assay [7] the test system is MT4. Kind of assay: Concentration that results in 50% death of MT-4 cells infected with pyridinone-resistant HIV-1 A17 strain; no toxicity was observed. The class given is functional, cell-based. To be noted: Homo sapiens.
Assay [8] has as its system CEM-SS. The assay can be described thus: Concentration that provides 50% protection in the CEM-SS cells infected with HIV-2 strain; IA means inactive. It counts as functional, cell-based. As to conditions: Homo sapiens.
In assay [9] the test system is MT4. Kind of assay: Concentration that provides 50% protection in the MT-4 cells infected with AZT-resistant HIV-1 6R strain. The class given is functional, cell-based. As to conditions: Homo sapiens.
Assay [10] has as its system MT4. The assay can be described thus: Concentration that provides 50% protection in the MT-4 cells infected with HIV-1 IIIBstrain. The class given is functional, cell-based. As to conditions: Homo sapiens.
Assay [11] has as its system MT4. Kind of assay: Concentration that results in 50% death of MT-4 cells infected with HIV-1 IIIB strain; no toxicity was observed. The class given is functional, cell-based. As to conditions: Homo sapiens.
Assay [12] relates to MT4. The assay can be described thus: Concentration that results in 50% death of MT-4 cells infected with SIV strain; no toxicity was observed. As to conditions: Homo sapiens. It counts as functional, cell-based.
The subject of assay [13] is PBL. The assay can be described thus: Concentration that provides 50% protection in the PBL cells infected with HIV-1 BAKI strain. It counts as functional, cell-based. As to conditions: Homo sapiens.
Assay [14] concerns MO/Mphi. Kind of assay: Concentration that results in 50% death of MO/Mphi cells infected with HIV-1 Ba-L strain; no toxicity was observed. It counts as functional, cell-based. To be noted: Homo sapiens.
In assay [15] the test system is PBL. Kind of assay: Concentration that results in 50% death of PBL cells infected with HIV-1 VIHU strain; no toxicity was observed. The class given is functional, cell-based. As to conditions: Homo sapiens.
Assay [16] concerns MT4. The assay can be described thus: Concentration that results in 50% death of MT-4 cells infected with AZT resistant HIV-1 6R strain; no toxicity was observed. It counts as functional, cell-based. As to conditions: Homo sapiens.
The test system of assay [17] is MO/Mphi. Kind of assay: Concentration that results in 50% death of MO/Mphi cells infected with HIV-1 ADA strain; no toxicity was observed. It counts as functional, cell-based. To be noted: Homo sapiens.
Assay [18] relates to PBL. The assay can be described thus: Concentration that results in 50% death of PBL cells infected with HIV-1 WEJO strain; no toxicity was observed. To be noted: Homo sapiens. It counts as functional, cell-based.
Assay [19] has as its system PBL. The assay can be described thus: Concentration that provides 50% protection in the PBL cells infected with HIV-1 WEJO strain. The class given is functional, cell-based. To be noted: Homo sapiens.
The subject of assay [20] is MT4. The assay can be described thus: Concentration that provides 50% protection in the MT-4 cells infected with pyridinone-resistant HIV-1 A17 strain. As to conditions: Homo sapiens. The class given is functional, cell-based.
Assay [21] deals with MT4. The assay can be described thus: Concentration that provides 50% protection in the MT-4 cells infected with SIV strain. The class given is functional, cell-based. As to conditions: Homo sapiens.
In assay [22] the test system is MT4. The assay can be described thus: Concentration that results in 50% death of MT-4 cells infected with HIV-1 6S strain; no toxicity was observed. As to conditions: Homo sapiens. It counts as functional, cell-based.
Assay [23] has as its system PBL. The assay can be described thus: Concentration that results in 50% death of PBL cells infected with HIV-1 BAKI strain; no toxicity was observed. The class given is functional, cell-based. To be noted: Homo sapiens.
Assay [24] deals with MO/Mphi. The assay can be described thus: Concentration that provides 50% protection in the MO/Mphi cells infected with HIV-1 ADA strain. It counts as functional, cell-based. As to conditions: Homo sapiens.

Active and inactive are the calls of the source. No cut-off for these calls is given here.

By EC50 is commonly meant the concentration needed to bring the measured effect to its halfway point. A higher EC50 goes with a less potent agent. The term IC50 denotes the concentration needed to halve the response being measured. Read a low IC50 as greater potency in that assay. On to `CCCCCC=C(c1cc(Br)c(OC)c(C(=O)OC)c1)c1cc(Br)c(OC)c(C(=O)OC)c1`, for which the EC50 in [1] stood at 5.5 µM; in assay [3], 151 µM; in [4], 24.9 µM; in [6], 0.56 µM; in [9] it was 6 µM; in [10], 16 µM. For the same molecule, the EC50 amounted to 15.2 µM in assay [13]; 10.2 µM in assay [19]; 14 µM in assay [20]; 136 µM in assay [21]; 1.85 µM in assay [24]. In addition, the IC50 was 0.38 µM in [2]; > 200 µM in assay [5]; > 200 µM in assay [7]; > 200 µM in assay [11]; > 200 µM in assay [12]; > 200 µM in assay [14]. In addition, the IC50 in [15] is > 100 µM; in assay [16], > 200 µM; in assay [17], > 200 µM; in assay [18], > 100 µM; in assay [22], > 200 µM; in [23] it was > 100 µM. In addition, the IA entry in assay [8] is “inactive”.

The values above are taken from ChEMBL document CHEMBL1149920, “Synthesis and biological evaluation of an alkenyldiarylmethane (ADAM) which acts as a novel non-nucleoside HIV-1 reverse transcriptase inhibitor” (Bioorg Med Chem Lett, 1995).
